The subject of one experiment is S.aureus. Put plainly: Quantitative germ count (re-isolation, surface method) after inoculating the test preparation. It is filed as cell-based. The following applies: Ausgangskeimzahl 2,6 x 10^5 KBE/ml. The procedure, abridged:
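Test preparations (5 ml) inoculated with ca. 10^5 CFU/ml of each strain, one tube per time point. After 2, 6, 8, 24, 32, 48 and 72 h, cells pelleted, washed and resuspended in NaCl-peptone buffer, then spiral-plated on Caso agar and incubated at 33±2 °C up to 4 days. Detection limit 100 CFU/ml.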

In a further experiment the test system is Alle Testkeime. Put plainly: Overall assessment: time until all test germs are eliminated (count and enrichment). In kind it is cell-based. The note with it: time after inoculation; all six test germs.

Data on 6 molecules can be found in patent EP1171107B1, “USE OF A PHARMACEUTICAL COMPOSITION IN THE MANUFACTURE OF A MEDICAMENT FOR THE TREATMENT OF PATHOLOGICAL CONDITIONS OF THE EYE CAUSED BY BACTERIA, VIRUSES, FUNGI, YEASTS AND PROTOZOA” (Dr. GERHARD MANN chem.-pharm. Fabrik GmbH, priority 1999, dated 2000).

Structures can show the parent of a compound that is named as a salt.

Protocol for Alle Testkeime: Escherichia (E.coli) Staphylococcus (S.aureus) Streptococcus (Sc.) Pneumoniae Pseudomonas (P.aeruginosa) Staphylococcus (S. epidermidis) Haemophilus (H. influenzae)
Die verschiedenen Testsubstanzen a. bis j. wurden jeweils zu 5 ml in sterile Zentrifugenröhrchen abgefüllt und mit ca. 10^5 KBE^*/ml (* = koloniebildende Einheiten) der oben genannten Testkeime kontaminiert. Pro Substanz wurde für jeden Testkeim und jede zu prüfende Testzeit ein separater Ansatz angeimpft, d.h.10 Testsubstanzen zu jeweils 7 Testzeiten und 6 Testkeime (= insgesamt 502 Testansätze). Nach 2, 6, 8, 24, 32, 48 und 72 Stunden wurde dann der jeweilige Testansatz 10 Minuten bei 3000 rpm abzentrifugiert. Der Überstand wurde dekantiert und das Pellet in 5 ml NaCl Peptonpuffer aufgenommen und resuspendiert. Die Suspension wurde erneut 10 Minuten bei 3000 rpm abzentrifugiert und 5 ml NaCl-Peptonpuffer aufgenommen und mittels Vortex homogenisiert.
Die anschließende Keimzahlbestimmung erfolgte im Oberflächenverfahren durch Ausspiralisieren eines 10011 Aliquots auf Caso-Agar bzw. für H. influenzae auf Kochblut-Agar. Die Platten wurden bei 33±2°C für max. 4 Tage bebrütet. Die Nachweisgrenze des Verfahrens liegt bei 100 KBE/ml.
Jeweils 2 ml der Testansätze wurden in 20 ml Caso-Bouillon oder für H. influenzae, in Fildes-Medium der Firma Becton Dickinson, ARt. […]

In the case of `CCCCCCCCCCCC[N+](C)(C)Cc1ccccc1` [Benzalkoniumchlorid 0,005 Gew.-%, Benzododeciniumchlorid], the “Ergebnis der Reisolierung (in KBE/ml)” value in the experiment with S.aureus (2 h after inoculation), in the experiment with S.aureus (4 h after inoculation), with S.aureus (6 h after inoculation), with S.aureus (8 h after inoculation), in the experiment with S.aureus (24 h after inoculation) and in the experiment with S.aureus (32 h after inoculation) was <100 KBE/ml in each case. Moreover, the “Ergebnis der Reisolierung (in KBE/ml)” value with S.aureus (48 h after inoculation) and with S.aureus (72 h after inoculation) was <100 KBE/ml throughout.

Take “Benzalkoniumchlorid [Benzalkoniumchlorid 0,006 Gew.-%]”: the “Ergebnis der Reisolierung (in KBE/ml)” value with S.aureus (2 h after inoculation), in the experiment with S.aureus (4 h after inoculation), with S.aureus (6 h after inoculation), with S.aureus (8 h after inoculation), in the experiment with S.aureus (24 h after inoculation) and in the experiment with S.aureus (32 h after inoculation) was <100 KBE/ml each time. Moreover, the “Ergebnis der Reisolierung (in KBE/ml)” value in the experiment on S.aureus (48 h after inoculation) and in the experiment on S.aureus (72 h after inoculation) was <100 KBE/ml in each case.

Consider `CC1COc2c(N3CCN(C)CC3)c(F)cc3c(=O)c(C(=O)O)cn1c23` (stereo not drawn) [Ofloxacin 0,3 Gew.-%, Ofloxacin, reference compound], for which the “Ergebnis der Reisolierung (in KBE/ml)” value with S.aureus (2 h after inoculation), with S.aureus (4 h after inoculation), with S.aureus (6 h after inoculation), in the experiment with S.aureus (8 h after inoculation), in the experiment on S.aureus (24 h after inoculation) and in the experiment with S.aureus (32 h after inoculation) was <100 KBE/ml throughout. Also, the “Ergebnis der Reisolierung (in KBE/ml)” value in the experiment with S.aureus (48 h after inoculation) and in the experiment with S.aureus (72 h after inoculation) was <100 KBE/ml each time. Also, the “Testkeime nach Inokulation der Zubereitung auch qualitativ nicht mehr nachweisbar” value in the experiment with Alle Testkeime worked out at 24 Stunden.

Regarding “Benzalkoniumchlorid [Benzalkoniumchlorid 0,0025 Gew.-%]”, the “Ergebnis der Reisolierung (in KBE/ml)” value in the experiment on S.aureus (2 h after inoculation), in the experiment on S.aureus (4 h after inoculation), with S.aureus (6 h after inoculation), with S.aureus (8 h after inoculation), in the experiment with S.aureus (24 h after inoculation) and in the experiment with S.aureus (32 h after inoculation) was <100 KBE/ml each time. In addition, the “Ergebnis der Reisolierung (in KBE/ml)” value in the experiment with S.aureus (48 h after inoculation) and with S.aureus (72 h after inoculation) was <100 KBE/ml each time.

On to `O=C(O)c1cn(C2CC2)c2cc(N3CCNCC3)c(F)cc2c1=O` [Ciprofloxacin HCl 0,35 Gew.-%, Ciprofloxacin HCl, reference compound], for which the “Ergebnis der Reisolierung (in KBE/ml)” value in the experiment with S.aureus (2 h after inoculation), in the experiment with S.aureus (4 h after inoculation), with S.aureus (6 h after inoculation), in the experiment on S.aureus (24 h after inoculation), in the experiment on S.aureus (32 h after inoculation) and in the experiment on S.aureus (48 h after inoculation) was <100 KBE/ml each time. Also, the “Ergebnis der Reisolierung (in KBE/ml)” value in the experiment on S.aureus (72 h after inoculation) was <100 KBE/ml.

As to “Benzalkoniumchlorid [Benzalkoniumchlorid 0,001 Gew.-%]”, the “Ergebnis der Reisolierung (in KBE/ml)” value in the experiment on S.aureus (2 h after inoculation), in the experiment with S.aureus (4 h after inoculation), with S.aureus (6 h after inoculation), in the experiment with S.aureus (8 h after inoculation), with S.aureus (24 h after inoculation) and in the experiment on S.aureus (32 h after inoculation) was <100 KBE/ml throughout. Also, the “Ergebnis der Reisolierung (in KBE/ml)” value in the experiment with S.aureus (48 h after inoculation) and with S.aureus (72 h after inoculation) was <100 KBE/ml throughout.
